Experimental data taken from US20250243560A1, “METAL EXTRACTANT AND SEPARATION RECOVERY METHOD OF METAL IONS USING METAL EXTRACTANT” (FUJIFILM Corporation, priority 2022, published 2025).
Read-outs that look alike come from different tables or passages of the source.

Tests used:
[1] = Separation recovery method I, water phase W3 (Zr, Rh sulfates) mixed with kerosine oil phase of the metal extractant; conditions: maximum amount of metal ions extracted / total amount of the other metal ions extracted, mixing amount 0.7 equivalent
Description: (§1) In addition, each of sulfates of a combination of metal ions shown in Table 1-1 was dissolved in ultrapure water to prepare each of metal ion-containing aqueous solutions (W2) and (W3) including two or three kinds of metal ions.
12 mL of the extractant (Y1) with respect to 10 mL of the prepared metal ion-containing aqueous solution (W1) was added to a 30 mL vial tube, and the mixture was stirred using a stirrer tip at 25° C. for 30 minutes. In this case, the mixing amount (unit: equivalent) of the metal extractant with respect to the total content of metal ions to be coordinated (that have the same definition as the extracted metal ions; in Example 1, Co and Ni) was 0.5. […]
Regarding each of the water phases used in Examples and Comparative Examples and the water phases after the extraction, the pH was measured using a pH meter (SK-620 pH II, manufactured by SATOTECH), and each of the contents of dissolved metal ions was determined using an inductively coupled plasma-optical emission spectrometer (ICP-OES) (Optima 7300 D (trade name), manufactured by Perkin Elmer Co., Ltd.). Measured values of the pH of each of the water phases used in Examples and Comparative Examples and the content of dissolved metal ions in each of the water phases are shown in the column “Water Phase pH” of Table 1-2 and the column “Metal Ion Concentration (ppm)” of Table 1-1. […]

[2] = Separation recovery method I, water phase W1 (Co, Ni sulfates) mixed with kerosine oil phase of the metal extractant; conditions: maximum amount of metal ions extracted / total amount of the other metal ions extracted, mixing amount 0.5 equivalent
Description: 95.4 g of cobalt (II) sulfate heptahydrate (manufactured by FUJIFILM Wako Pure Chemicals Corporation) and 95.7 g of nickel (II) sulfate heptahydrate (manufactured by FUJIFILM Wako Pure Chemicals Corporation) were added to a 1L measuring flask, were diluted with ultrapure water, and were stirred and dissolved at 30° C. As a result, a metal ion-containing aqueous solution (W1) including two kinds of metal ions was prepared.
(§2) 12 mL of the extractant (Y1) with respect to 10 mL of the prepared metal ion-containing aqueous solution (W1) was added to a 30 mL vial tube, and the mixture was stirred using a stirrer tip at 25° C. for 30 minutes. In this case, the mixing amount (unit: equivalent) of the metal extractant with respect to the total content of metal ions to be coordinated (that have the same definition as the extracted metal ions; in Example 1, Co and Ni) was 0.5. Next, a 10 M sodium hydroxide aqueous solution or a 10 M hydrochloric acid was added to adjust the pH of the mixed solution to a value shown in the column “pH during Mixing” of Table 1-2. Further, the solution was stirred at 25° C. for 30 minutes, and was left to stand at the same temperature for 1 hour. After verifying that the solution was separated into two layers of the organic phase (oil phase) and the water phase, the separated water phase was extracted, and the separation and recovery of the metal ions was performed. The metal ions extracted in Example 1 and the metal ions extracted in the maximum amount are shown in the column “Kind” and the column “Maximum Amount Extracted” of the column “Extracted Metal Ions” in Table 1-2, respectively.
(§3) Separation and recovery of metal ions according to Examples 2 to 4 and 8 and Comparative Examples 1 to 6 and 9 were performed using the same method as that of Example 1, except that the metal ion-containing aqueous solution and the metal extractant solution were changed to a combination shown in Table 1-1 and Table 1-2 (hereinafter, both of which are referred to as Table 1″), the pH during the mixing of the water phase and the oil phase was set to a value shown in the column “pH during Mixing” of Table 1-2, and the mixing amount (unit: equivalent) of the metal extractant with respect to the total content of metal ions to be coordinated was set to a value shown in the column “Mixing Amount” of Table 1-2 for mixing and standing. The metal ions extracted in each of Examples and the metal ions extracted in the maximum amount are shown in the column “Kind” and the column “Maximum Amount Extracted” of the column “Extracted Metal Ions” in Table 1-2, respectively.
Regarding each of the water phases used in Examples and Comparative Examples and the water phases after the extraction, the pH was measured using a pH meter (SK-620 pH II, manufactured by SATOTECH), and each of the contents of dissolved metal ions was determined using an inductively coupled plasma-optical emission spectrometer (ICP-OES) (Optima 7300 D (trade name), manufactured by Perkin Elmer Co., Ltd.). Measured values of the pH of each of the water phases used in Examples and Comparative Examples and the content of dissolved metal ions in each of the water phases are shown in the column “Water Phase pH” of Table 1-2 and the column “Metal Ion Concentration (ppm)” of Table 1-1. The maximum amount (ppm) of the metal ions extracted measured as described above was divided by the total amount (ppm) of the other metal ions extracted to calculate a ratio between the amounts thereof extracted. […]

[3] = Separation recovery method I, water phase W2 (Mn, Co, Ni sulfates) mixed with kerosine oil phase of the metal extractant; conditions: for Selection Ratio: W2, maximum amount of metal ions extracted / total amount of the other metal ions extracted, mixing amount 0.4 equivalent
Description: as §1, §2, §3
(§4) Regarding each of the water phases used in Examples and Comparative Examples and the water phases after the extraction, the pH was measured using a pH meter (SK-620 pH II, manufactured by SATOTECH), and each of the contents of dissolved metal ions was determined using an inductively coupled plasma-optical emission spectrometer (ICP-OES) (Optima 7300 D (trade name), manufactured by Perkin Elmer Co., Ltd.). Measured values of the pH of each of the water phases used in Examples and Comparative Examples and the content of dissolved metal ions in each of the water phases are shown in the column “Water Phase pH” of Table 1-2 and the column “Metal Ion Concentration (ppm)” of Table 1-1. The maximum amount (ppm) of the metal ions extracted measured as described above was divided by the total amount (ppm) of the other metal ions extracted to calculate a ratio between the amounts thereof extracted. The result is shown in the column “Selection Ratio” of Table 1-2.

[4] = Acid dissociation constant pKa by neutralization titration; type: physicochemical; conditions: for metal extractant II pKa of a conjugate acid
Source text: An acid dissociation constant pKa of the metal extractant is not particularly limited, and an appropriate value for the kind, the number, and the like of the coordinating functional groups can be adopted. In the present invention, the pKa is a value measured by neutralization titration.
In the present invention, the pKa is a value measured by neutralization titration.
Regarding the synthesized or prepared metal extractant, the molecular weight and the pKa calculated using the above-described method are shown in Table 1-2.

[5] = Separation recovery method II, water phase W4 (Co, Ni sulfates with lithium chloride) mixed with kerosine oil phase of the metal extractant; conditions: for Selection Ratio: W4, maximum amount of metal ions extracted / total amount of the other metal ions extracted, mixing amount 0.5 equivalent
Description: 200 g of lithium chloride (manufactured by FUJIFILM Wako Pure Chemical Corporation), 95.4 g of cobalt (II) sulfate heptahydrate (manufactured by FUJIFILM Wako Pure Chemicals Corporation), and 95.7 g of nickel (II) sulfate heptahydrate (manufactured by FUJIFILM Wako Pure Chemicals Corporation) were added to a 1L measuring flask, were diluted with ultrapure water, and were stirred and dissolved at 30° C. As a result, a metal ion-containing aqueous solution (W4) including two kinds of metal ions was prepared. In this aqueous solution, in the two kinds of metal ions (cobalt and nickel), complex ions to which halide ions were coordinated were formed.
12 mL of the extractant (Y3) with respect to 10 mL of the prepared metal ion-containing aqueous solution (W4) was added to a 30 mL vial tube, and the mixture was stirred using a stirrer tip at 25° C. for 30 minutes. In this case, the mixing amount (unit: equivalent) of the metal extractant to the total content of the metal ions was 0.5. Next, a 10 M sodium hydroxide aqueous solution or a 10 M hydrochloric acid was added to adjust the pH of the mixed solution to a value shown in the column “pH during Mixing” of Table 1-2. Further, the solution was stirred at 25° C. for 30 minutes, and was left to stand at the same temperature for 1 hour. After verifying that the solution was separated into two layers of the organic phase (oil phase) and the water phase, the separated water phase was extracted, and the separation and recovery of the metal ions was performed. The metal ions extracted in Example 5 and the metal ions extracted in the maximum amount are shown in the column “Kind” and the column “Maximum Amount Extracted” of the column “Extracted Metal Ions” in Table 1-2, respectively.
The separation and recovery of the metal ions according to Examples 6 and 7 and Comparative Examples 7 and 8 was performed using the same method as that of Example 5, except that the metal ion-containing aqueous solution and the extractant solution were changed to a combination shown in Table 1-2, and the pH during the mixing of the water phase and the oil phase was set to a value shown in the column “pH during Mixing” of Table 1 for mixing and standing. The metal ions extracted in each of Examples and the metal ions extracted in the maximum amount are shown in the column “Kind” and the column “Maximum Amount Extracted” of the column “Extracted Metal Ions” in Table 1-2, respectively.
as §4

[6] = room temperature, concentration 310 mM
Description: Each of the synthesized or prepared metal extractants was added to a 100 mL measuring flask, and was diluted using kerosine (manufactured by FUJIFILM Wako Pure Chemicals Corporation) at room temperature. As a result, metal extractant solutions (Y1) to (Y6) and (Ycl) to (Yc9) (concentration: 310 mM) including the metal extractants were prepared, respectively.

Compound	Selection Ratio [2]	Selection Ratio [3]	pKa ([4]; read-out: pKa)	Selection Ratio [5]	further results
CCCCC(CC)CC(C(=O)O)N(CCN(CC(CC)CCCC)C(CC(CC)CCCC)C(=O)O)CC(CC)CCCC (stereo not drawn) [E-1]	10	20	6.1	–	Selection Ratio [1]: 6.7
CCCCC(CC)CCC(C(=O)O)N(CCN(CC(CC)CCCC)C(CCC(CC)CCCC)C(=O)O)CC(CC)CCCC (stereo not drawn) [E-2]	4.0	–	6.3	–	–
CCCCC(CC)CN(CCN(CC(CC)CCCC)CC(CC)CCCC)CC(CC)CCCC (stereo not drawn) [E-3]	–	–	11.1	5.0	–
CCCCCCCCCN(CCCCCCCCC)CCN(CCCCCCCCC)CCCCCCCCC [E-4]	–	–	11.4	3.3	–
CCCCC(CC)CN(CC(CC)CCCC)CC1CCC(CN(CC(CC)CCCC)CC(CC)CCCC)CC1 (stereo not drawn) [E-5]	–	–	11.5	4.0	–
CCCCC(CC)CN(CCN(CC(CC)CCCC)C(CCCOCCOC)C(=O)O)C(CCCOCCOC)C(=O)O (stereo not drawn) [E-6]	5.0	–	6.2	–	–
O=C(O)CN(CCN(CC(=O)O)CC(=O)O)CC(=O)O [EDTA, ethylenediaminetetraacetic acid]	–	–	0.9	–	extraction of metal ions to the oil phase ([3]; W2, in words): not able to be extracted; dissolution in kerosine [6]: not able to be dissolved in kerosine
CCCCC(CC)COP(=O)(O)CC(CC)CCCC (stereo not drawn) [PC-88A, mono-2-ethylhexyl(2-Ethylhexyl)phosphonate]	–	1.4	–	–	selectivity of the Mn ions extracted in the maximum amount ([3]; W2, in words): low
CCCCC(CC)CN(CC(CC)CCCC)C(=O)CN(CCN(CC(=O)O)CC(=O)N(CC(CC)CCCC)CC(CC)CCCC)CC(=O)O (stereo not drawn) [T-1]	–	0.5	6	–	selectivity of the Mn ions extracted in the maximum amount ([3]; W2, in words): low
CCCCC(CC)CN(CC(CC)CCCC)C(=O)CNCC(=O)O (stereo not drawn) [T-2]	–	0.6	5.2	–	–
CCCCC(CC)CC(OCCOC(CC(CC)CCCC)C(=O)O)C(=O)O (stereo not drawn) [T-3]	1.1	–	5.8	–	–
CCCCC(CC)COCCOCC(CC)CCCC (stereo not drawn) [T-4]	–	–	13.4	1.5	amount of the metal ions extracted in the maximum amount ([5]; W4, in words): not sufficient
CCCCC(CC)CC(C(=O)O)N(CCC(C)SC)CCN(CCC(C)SC)C(CC(CC)CCCC)C(=O)O (stereo not drawn) [T-5]	1.2	–	6.1	–	–
CCCCC(CC)CN(CC(CC)CCCC)CC(CC)CCCC (stereo not drawn) [Tris-2-EHA, tris(2-ethylhexyl)amine]	–	–	5.2	1.5	–
Versatic acid 10 [VA-10]	–	0.7	–	–	selectivity of the Mn ions extracted in the maximum amount ([3]; W2, in words): low; pKa [4]: 7.9
